This is an account of results in US12589099B2 (priority 2021, dated 2026).

Molecules are shown by their SMILES.

Experiment [1] deals with NeuN and BrdU double positive granule neurons in the dentate gyrus. The experiment can be described thus: NeuN/BrdU double label, newborn neurons in the dentate gyrus 35 days post-TBI. The class given is in vivo, male Wistar rats. To be noted: 4.5 mg/kg IN twice daily, 35 days following TBI. From the text: (§1) Young adult (2-3 months) male Wistar rats were subjected to a moderate traumatic brain injury (TBI) induced by controlled cortical impact (CCI). Animal models of TBI including the CCI model and functional tests have been described in detail in peer reviewed publications (Xiong et al., 2013, Nat Rev Neurosci.; Zhang et al., 2016, J Neurosurg.; Zhang et al., 2016, Neurochem Int.; Zhang et al., 2021, J Neurotrauma). Injury consisted of a single impact at 4.0 m/sec, 2.5 mm deformation to the left parietal cortex. In addition, a group of animals was left healthy/not injured to serve as a healthy control.
The substance used in this study was ALPHA-1062 at 4.5 mg/kg. As control treatment (vehicle) purified water was administered intranasally (IN). The ALPHA-1062 and the control treatment were initiated 2 hours after injury and continued twice daily (with a 6-hour interval) for 35 consecutive days. […]
Histological assessment was performed including quantitative image analysis protocols; followed by statistical analysis of the data. […]
For cell counting and quantitation NeuN+ cells were examined in the ipsilateral cortex, DG, CA1, and CA3 regions of the ipsilateral hippocampus. […] The number of BrdU+ cells (red-fluorophore) and NeuN (green-fluorophore)/BrdU-colabeled cells (yellow after merge) were counted. […]

Experiment [2] concerns moderate traumatic brain injury (TBI) induced by controlled cortical impact (CCI). Briefly: Modified neurological severity score (mNSS) after TBI. It counts as in vivo, male Wistar rats.
From the text: as §1
The animals were divided into 3 groups: • 1) TBI+Vehicle (purified water, n=10) • 2) TBI+ALPHA-1062 (4.5 mg/kg) (n=10) • 3) Healthy/not injured and not treated (Sham surgery) (n=10)
The substance used in this study was ALPHA-1062 at 4.5 mg/kg. As control treatment (vehicle) purified water was administered intranasally (IN). The ALPHA-1062 and the control treatment were initiated 2 hours after injury and continued twice daily (with a 6-hour interval) for 35 consecutive days.
In addition, neurological functional tests were performed by conducting footfault tests and observations to determine the modified neurological severity score (mNSS) at 1, 7, 14, 21, 28, 35 days after TBI (see Table 1). The mNSS is a composite score assessing motor, sensory, balance, and reflex functions. […]

Regarding `COc1ccc2c3c1O[C@H]1C[C@@H](OC(=O)c4ccccc4)C=C[C@@]31CCN(C)C2` [ALPHA-1062, (4aS,6R,8aS)-5,6,9,10,11,12-hexahydro-3-methoxy-11-methyl-4aH-[1]benzofuro[3a,3,2-ef][2]benzazepin-6-ol benzoate], in experiment [1], the “NeuN and BrdU double positive granule neurons compared to both vehicle-treated and sham surgery animals” value is given as “significantly higher (p<0.05) numbers”. Moreover, the mNSS performance entry in experiment [2] (4.5 mg/kg IN twice daily, from day 14 (D14) onwards, vs vehicle) is “statistically significantly better”. Moreover, in experiment [2] (rats after TBI, compared to vehicle treatment), the “Modified Neurological Severity Score (mNSS), performance over VEHICLE” value was “superior”.
